Reference: US20080014278A1, “METAL-CONTAINING FORMULATIONS AND METHODS OF USE” (priority 2006, published 2008)

What was measured:
[1] = tested on: Staphylococcus aureus; assay: MIC assay (microdilution); format: cell-based
[2] = tested on: Staph. aureus; assay: Minimal bactericidal concentration (MBC) assay; format: cell-based, Staphylococcus aureus
Experimental: (§1) Minimal bactericidal concentration (MBC) assay—Overnight-grown MIC plates, prepared as described in Example 16, were evaluated to determine the MIC. Culture was then sampled from wells at and near the MIC using sterile inoculating loops, and transferred to fresh MHA plates to determine if viable bacteria remained. […] The MBC was determined as the well in the MIC plate which contained the lowest concentration of silver yielding no bacterial growth on the MHA plate.

[3] = tested on: Staphylococcus epidermidis; assay: MIC assay (microdilution); format: cell-based
[4] = tested on: Ser. marcescens; assay: Minimal bactericidal concentration (MBC) assay; format: cell-based, Serratia marcescens
Experimental: as §1

[5] = tested on: Enterobacter cloacae; assay: MIC assay (microdilution); format: cell-based; settings: Enterobacter cloacae
[6] = tested on: Burkholderia multivorans; assay: MIC assay (microdilution); format: cell-based
[7] = tested on: Pseudomonas aeruginosa; assay: MIC assay (microdilution); format: cell-based
[8] = tested on: B. multivorans; assay: Minimal bactericidal concentration (MBC) assay; format: cell-based, Burkholderia multivorans
Experimental: as §1

[9] = tested on: Prot. mirabilis; assay: Minimal bactericidal concentration (MBC) assay; format: cell-based, Proteus mirabilis; settings: Prot. mirabilis NP405
Experimental: as §1

[10] = tested on: Mycobacterium tuberculosis H37Ra; format: cell-based
[11] = tested on: Citrobacter freundii; assay: MIC assay (microdilution); format: cell-based; settings: C. freundii NP410
[12] = tested on: Strep. pyogenes; assay: Minimal bactericidal concentration (MBC) assay; format: cell-based, Streptococcus pyogenes
Experimental: as §1

[13] = tested on: K. pneumoniae; assay: Minimal bactericidal concentration (MBC) assay; format: cell-based, Klebsiella pneumoniae
Experimental: as §1

[14] = tested on: Burkholderia dolosa; assay: MIC assay (microdilution); format: cell-based
[15] = tested on: Staph epidermidis; assay: Minimal bactericidal concentration (MBC) assay; format: cell-based, Staphylococcus epidermidis
Experimental: as §1

[16] = tested on: Streptococcus pneumoniae; assay: MIC assay (microdilution); format: cell-based; settings: lactate solutions, nanocrystalline silver: range for 12 samples
[17] = tested on: E. coli; assay: Minimal bactericidal concentration (MBC) assay; format: cell-based, Escherichia coli
Experimental: as §1

[18] = tested on: Escherichia coli; assay: MIC assay (microdilution); format: cell-based
[19] = tested on: Ps. aeruginosa; assay: Minimal bactericidal concentration (MBC) assay; format: cell-based, Pseudomonas aeruginosa
Experimental: as §1

[20] = tested on: C. freundii; assay: Minimal bactericidal concentration (MBC) assay; format: cell-based, Citrobacter freundii; settings: C. freundii NP410
Experimental: as §1

[21] = tested on: Serratia marcescens; assay: MIC assay (microdilution); format: cell-based
[22] = tested on: Proteus mirabilis; assay: MIC assay (microdilution); format: cell-based; settings: Prot. mirabilis NP405
[23] = tested on: Streptococcus pyogenes; assay: MIC assay (microdilution); format: cell-based
[24] = tested on: B dolosa; assay: Minimal bactericidal concentration (MBC) assay; format: cell-based, Burkholderia dolosa
Experimental: as §1

[25] = tested on: Klebsiella pneumoniae; assay: MIC assay (microdilution); format: cell-based
[26] = Ser. marcescens NP402, second entry
[27] = Ser. marcescens NP408, second entry
[28] = K. pneumoniae NP403, second entry

O=[N+]([O-])[O-].[Ag+] [AgNO3, silver nitrate]
MIC ([1]; Staph aureus NP101, Lactate): 9 ppm | MIC ([1]; Staph aureus NP101, Water/Lecithin): 11 ppm | MIC ([1]; Staph aureus NP101, Water/PVA): 11 ppm | MIC ([1]; Staph aureus NP102, Lactate): 9 ppm | MIC ([1]; Staph aureus NP102, Water/Lecithin): 11 ppm | MIC ([1]; Staph aureus NP102, Water/PVA): 11 ppm | MIC ([1]; Staph aureus NP103, Lactate): 9 ppm | MIC ([1]; Staph aureus NP103, Water/Lecithin): 11 ppm | MIC ([1]; Staph aureus NP103, Water/PVA): 11 ppm | MIC ([1]; Staph. aureus 6538): 6 parts silver per million | MIC ([1]; Staph. aureus 700699): 3 parts silver per million | MIC ([1]; Staph. aureus NP101): 6 parts silver per million | MIC ([1]; Staph. aureus NP102): 6 parts silver per million | MIC ([1]; Staph. aureus NP103): 6 parts silver per million | MIC ([1]; lactate solutions, S. aureus (ATCC), nanocrystalline silver: range for 12 samples): 11 µg/mL | MIC ([1]; lactate solutions, S. aureus (clin.), nanocrystalline silver: range for 12 samples): 5 µg/mL | MBC ([2]; Staph. aureus 6538): 6 parts silver per million | MBC ([2]; Staph. aureus 700699): 6 parts silver per million | MBC ([2]; Staph. aureus NP101): 11 parts silver per million | MBC ([2]; Staph. aureus NP102): 6 parts silver per million | MBC ([2]; Staph. aureus NP103): 6 parts silver per million | MIC ([3]; Staph epidermidis 12228): 3 parts silver per million | MIC ([3]; Staph epidermidis NP136): 3 parts silver per million | MIC ([3]; lactate solutions, S. epiderm (ATCC), nanocrystalline silver: range for 12 samples): 3 µg/mL | MBC ([4]; Ser. marcescens NP402): 6 parts silver per million | MBC [4, 26]: 6 parts silver per million | MBC ([4]; Ser. marcescens NP408): 6 parts silver per million | MBC [4, 27]: 11 parts silver per million | MIC ([5]; aerobic +): 13 µg/mL | MIC ([5]; aerobic − (anaerobic)): 25 µg/mL | MIC ([6]; B. multivorans B1): 3 parts silver per million | MIC ([6]; B. multivorans B2): 3 parts silver per million | MIC ([6]; B. multivorans B4): 2 parts silver per million | MIC ([7]; P. aeruginosa NP212, formulation type Lactate): 2 ppm | MIC ([7]; P. aeruginosa NP212, formulation type Water/Lecithin): 3 ppm | MIC ([7]; P. aeruginosa NP212, formulation type Water/PVA): 3 ppm | MIC ([7]; P. aeruginosa NP213, Lactate): 1 ppm | MIC ([7]; P. aeruginosa NP213, Water/Lecithin): 1 ppm | MIC ([7]; P. aeruginosa NP213, Water/PVA): 1 ppm | MIC ([7]; P. aeruginosa NP214, Lactate): 1 ppm | MIC ([7]; P. aeruginosa NP214, Water/Lecithin): 1 ppm | MIC ([7]; P. aeruginosa NP214, Water/PVA): 3 ppm | MIC ([7]; Ps. aeruginosa 9027): 1 parts silver per million | MIC ([7]; Ps. aeruginosa 27317): 2 parts silver per million | MIC ([7]; Ps. aeruginosa NP201): 1 parts silver per million | MIC ([7]; Ps. aeruginosa NP204): 1 parts silver per million | MIC ([7]; Ps. aeruginosa NP206): 1 parts silver per million | MIC ([7]; lactate solutions, P. aerug (ATCC), nanocrystalline silver: range for 12 samples): 3 µg/mL | MIC ([7]; lactate solutions, P. aerug. (clin.), nanocrystalline silver: range for 12 samples): 3 µg/mL | MBC ([8]; B. multivorans B1): 3 parts silver per million | MBC ([8]; B. multivorans B2): 3 parts silver per million | MBC ([8]; B. multivorans B4): 3 parts silver per million | MBC [9]: 13 parts silver per million | MIC [10]: 2.5 μg/ml silver | MIC [11]: 3 parts silver per million | MBC ([12]; Strep. pyogenes NP303): 10 parts silver per million | MBC ([12]; Strep. pyogenes NP304): 21 parts silver per million | MBC ([12]; Strep. pyogenes NP306): 21 parts silver per million | MBC ([13]; K. pneumoniae NP401): 3 parts silver per million | MBC ([13]; K. pneumoniae NP403): 6 parts silver per million | MBC [13, 28]: 3 parts silver per million | MBC ([13]; K. pneumoniae NP406): 1 parts silver per million | MIC ([14]; B dolosa A3): 2 parts silver per million | MIC ([14]; B dolosa A4): 2 parts silver per million | MBC ([15]; Staph epidermidis 12228): 3 parts silver per million | MBC ([15]; Staph epidermidis NP136): 3 parts silver per million | MIC ([16]; S. pneumo (clin 314)): 11 µg/mL | MIC ([16]; S. pneumo (clin 315)): 21 µg/mL | MBC ([17]; E. coli 8739): 0.4 parts silver per million | MBC ([17]; E. coli 43745): 0.4 parts silver per million | MBC ([17]; E. coli NP412): 1 parts silver per million | MIC ([18]; E. coli 8739): 0.4 parts silver per million | MIC ([18]; E. coli 43745): 1 parts silver per million | MIC ([18]; E. coli NP412): 1 parts silver per million | MIC ([18]; lactate solutions, E. coli (ATCC), nanocrystalline silver: range for 12 samples): 3 µg/mL | MBC ([19]; Ps. aeruginosa 27317): 3 parts silver per million | MBC ([19]; Ps. aeruginosa NP201): 3 parts silver per million | MBC ([19]; Ps. aeruginosa NP204): 3 parts silver per million | MBC ([19]; Ps. aeruginosa NP206): 1 parts silver per million | MBC [20]: 3 parts silver per million | MIC ([21]; Ser. marcescens NP402): 6 parts silver per million | MIC [21, 26]: 6 parts silver per million | MIC ([21]; Ser. marcescens NP408): 6 parts silver per million | MIC [21, 27]: 11 parts silver per million | MIC ([21]; Serratia marcescens, aerobic +): 6 µg/mL | MIC ([21]; Serratia marcescens, aerobic − (anaerobic)): 13 µg/mL | MIC [22]: 6 parts silver per million | MIC ([23]; Strep. pyogenes NP303): 3 parts silver per million | MIC ([23]; Strep. pyogenes NP304): 6 parts silver per million | MIC ([23]; Strep. pyogenes NP306): 6 parts silver per million | MIC ([23]; lactate solutions, S. pyog (clin. 303), nanocrystalline silver: range for 12 samples): 3 µg/mL | MIC ([23]; lactate solutions, S. pyog (clin. 304), nanocrystalline silver: range for 12 samples): 5 µg/mL | MBC ([24]; B dolosa A3): 3 parts silver per million | MBC ([24]; B dolosa A4): 2 parts silver per million | MIC ([25]; K. pneumoniae NP401): 3 parts silver per million | MIC ([25]; K. pneumoniae NP403): 6 parts silver per million | MIC [25, 28]: 6 parts silver per million | MIC ([25]; K. pneumoniae NP406): 1 parts silver per million | MIC ([25]; Klebsiella pneumoniae, aerobic +): 3 µg/mL | MIC ([25]; Klebsiella pneumoniae, aerobic − (anaerobic)): 3 µg/mL
